For assay [1], the target named is SNCA IRE. In words: MST binding affinity for SNCA IRE (A bulge model RNA). The following applies: microscale thermophoresis; Cy5-labeled RNA. On the procedure:
Binding Affinity Measurements: Microscale Thermophoresis (MST). Binding affinity measurements were performed on a Monolith NT.115 MST system (NanoTemper Technologies) with Cy5-labeled oligonucleotides. Briefly, Cy5-labeled RNA (5 nM) was prepared in 1× Folding Buffer and folded by heating at 60° C. for 5 min and then slowly cooling to room temperature. After cooling, Tween-20 was added to a final concentration of 0.1% (v/v). Compound solutions were prepared separately in 30 μL of 1× Assay Buffer at a final concentration of 5 μM (1% (v/v) DMSO), followed by 1:1 serial dilutions in 1× Assay Buffer. RNA and compound solutions were then mixed 1:1 by volume.
Samples were incubated for 20 min at room temperature and then loaded into premium capillaries (NanoTemper Technologies, Cat #MO-K025). The following parameters were used for MST measurement: 5-20% LED power (adjusted to keep fluorescence intensity between 8000 and 18000), 80% MST power, Laser-On time=30 s, and Laser-Off time=5 s. The resulting data were analyzed by calculating the change in thermophoresis as a function of compound concentration and fitted by Equation (3) in MST analysis software (NanoTemper Technologies) to yield the dissociation constant (Kd):
where F is the concentration of fluorescently labeled RNA; unbound and bound refer to the thermophoresis signal at completely unbound and bound state of RNA, respectively; c is the concentration of the compound; f (c) is the thermophoresis signal at compound concentration of c; Kd is the dissociation constant.

Assay [2] concerns SNCA mRNA. The assay can be described thus: SNCA mRNA in iPSC-induced dopaminergic neurons. In kind it is cell-based, human. On the procedure: RNA extraction and reverse transcription-quantitative polymerase chain reaction (RT-qPCR). Total RNA was extracted from cells using a Quick-RNA MiniPrep Kit (Zymo Research) per the manufacturer's protocol including DNase treatment. For each sample, 200 ng of RNA was reverse transcribed into cDNA by using a qScript cDNA Synthesis Kit (QuantaBio) according to the manufacturer's instructions. To assess the relative mRNA levels, RT-qPCR was performed in triplicate using SYBR Green PCR mater mix (Applied Biosystems) with a Quant Studio 5 Real-Time PCR system. The relative levels of mRNA were calculated by using the ΔΔCt method as previously described.^8
(§1) Dopamine neuron induction. For dopamine neuronal induction,^15,16 the dual-SMAD inhibition method^17 was used for floor plate (FP)-based midbrain dopamine (DA) neuron induction with modifications. Prior to differentiation, Matrigel matrix (BD) was thawed at 4° C. overnight or on ice until it is dissolved. Matrigel coated 6-well plates were prepared according to manufacturer's instructions and incubated at 37° C. for at least 1 h before use. iPSCs were dissociated with Accutase (STEMCELL Technologies) and plated (3.5×10^5-4×10^5 cells per cm^2) into a new Matrigel coated plate and grown in mTeSR medium (STEMCELL Technologies) with StemBeads FGF2 (StemCultures) and ROCK inhibitor Y27632 (5 μM, Tocris). […]

For assay [3], the system named is α-synuclein. In words: α-synuclein protein in iPSC-induced dopaminergic neurons. The class given is cell-based, human. On the procedure:
as §1, with “Tocris). After 24 to 48 h, when the cells reached 100% confluency, the differentiation protocol was initiated by feeding the cells with DMEM containing 15% KnockOut Serum Replacement (KSR, Gibco), 2 mM L-glutamine (L-Glut) and 10 μM β-mercaptoethanol for 11 days.” for “Tocris).”
ELISA (Enzyme-Linked Immunosorbent Assay). […] After compound treatment, total protein was extracted and quantified as described in Western blotting. The concentration of α-synuclein protein was measured by using Human Alpha-synuclein ELISA Kit (Abcam, ab260052) per the manufacturer's recommendations.

The test system of assay [4] is SNCA-UTR-Luciferase. The assay can be described thus: SNCA-UTR luciferase reporter assay. Conditions: Homo sapiens, M-HeLa; 2 μM; HeLa cells; read-out: decrease of luminescence signal. In kind it is cell-based, human. An excerpt:
Plasmid constructs and establishment of reporter gene overexpressing cells. Construction of pIRES-Luc-EGFP-puro plasmid and pCDH-α-syn-5′-UTR-Luc-EGFP-puro plasmid used in 5′ UTR-luciferase-based selectivity assay were previously described.^4 Briefly, In-Fusion PCR cloning system (Takara Bio, Mountain View, CA, USA) was used for all plasmid constructions per the manufacturer's instructions. To ensure sequence accuracy, all plasmids generated in this study were confirmed by sequencing.
Luciferase assay. The effect of compounds on translation of SNCA IRE-containing transcript was measured by using a luciferase reporter assay. HeLa cells (~60% confluency) were transfected with plasmids (2 μg per 60 mm dish) by using JetPrime (Polyplus Transfection) according to the manufacturer's recommended procedures. Approximately 16 h after transfection, the transfection cocktail was removed, and the cells were trypsinized and seeded to 96-well plates (8,000 cells per well). After 6 h, cells were treated as described in Cell Culture. To measure the luciferase signals, the cells were then washed with 1× DPBS, and luciferase activity in each well was measured by using the ONE-Glo Luciferase Assay System (Promega) per the manufacturer's instructions. Luminescence from firefly luciferase reaction was measured using a Biomek FLx800 plate reader.

In assay [1], `O=C(CSc1nnc(-c2ccncc2)n1-c1ccc(Br)cc1)Nc1ccc2cn[nH]c2c1` [Synucleozid-2.0] returned a Kd of 66 ± 4 nM. The “effect on SNCA mRNA levels in dopaminergic neurons (in words)” value in assay [2] is given as “no effect”. The “α-synuclein protein levels in dopaminergic neurons (in words)” value in assay [3] (ELISA, FIG. 3D) was “decreased α-synuclein protein levels”. In addition, the inhibition at 2 µM in assay [4] is around 25%.
Compound `CCOC(=O)C1=C(Nc2ccccc2)S/C(=C\c2ccc(OCCOCCOCCOCCNC(=O)CCCOc3ccc(-n4c(SCC(=O)Nc5ccc6cn[nH]c6c5)nnc4-c4ccncc4)cc3)c(O)c2)C1=O` [Syn-RiboTAC] returned a dissociation constant Kd in assay [1] of 103 ± 10 nM. Further, the “decrease of SNCA transcript levels in dopaminergic neurons” value in assay [2] is ~ 50%. In assay [3] (2 μM, PD patient-derived (SNCA triplication)), the “decrease of α-synuclein protein levels in dopaminergic neurons” value is listed as ~ 50%. In assay [4], the inhibition at 2 µM was around 40%.

Values taken from patent US20260325655A1, “DECREASING THE INTRINSICALLY DISORDERED PROTEIN ALPHA-SYNUCLEIN’S LEVELS BY TARGETING ITS STRUCTURED MRNA WITH A RIBONUCLEASE TARGETING CHIMERA” (University of Florida Research Foundation, Incorporated, priority 2023, published 2026).
